Measured values reported in US20110281798A1, “Methods for Lowering Plasma Glucagon with Exendins and Exendin Agonist Analogs” (AMYLIN PHARMACEUTICALS, INC., priority 1999, published 2011).

What was measured:
[1] = system: diabetic db/db mice; assay: Plasma glucose lowering in diabetic db/db mice, dose response; assay type: in vivo, mouse
[2] = system: Sprague-Dawley rats; assay: Insulinotropic action during intravenous glucose challenge in rats; assay type: in vivo, rat; settings: 30 pmol/kg/min i.v.

Row | Substance | glucose lowering activity compared with exendin 4 ([1]; model not stated at b253) | Glucose-lowering ED50 ([1]; diabetic db/db mice) [µg] | Increase of 60-min insulin AUC versus saline ([2]; n.s. versus saline) [%] | Plasma glucose after glucose injection ([2]; saline 21.7) [mM] | 60-min glucose AUC ([2]; saline 987±39) [mM·min]
1 | Leu^14, Phe^25 1-28 exendin-4 (HGEGTFTSDLSKQLEEEAVRLAIEFLKN) [AC3177, a shortened analog of exendin 4] | nearly equipotent activity to exendin 4 | – | – | – | –
2 | GLP-1 [7-36]NH2 | – | 20.6 | 20 | 23.7 | 1096 ± 68
